Among the data in patent US11718589B2, “Compositions and methods of modulating short-chain dehydrogenase” (CASE WESTERN RESERVE UNIVERSITY, priority 2017, dated 2023) are IC50 values, retold here.

Like-named read-outs stand apart in the source and are kept apart here.

The target of the test is recombinant 15-PGDH (Homo sapiens (Human), UniProt P15428). Description: Enzyme inhibition of recombinant 15-PGDH, in vitro assay. It is filed as biochemical.
Where [1] appears, read: recombinant human 15-PGDH, read-out: Enzyme inhibition (IC50).

Sequence of recombinant 15-PGDH (P15428 whole entry): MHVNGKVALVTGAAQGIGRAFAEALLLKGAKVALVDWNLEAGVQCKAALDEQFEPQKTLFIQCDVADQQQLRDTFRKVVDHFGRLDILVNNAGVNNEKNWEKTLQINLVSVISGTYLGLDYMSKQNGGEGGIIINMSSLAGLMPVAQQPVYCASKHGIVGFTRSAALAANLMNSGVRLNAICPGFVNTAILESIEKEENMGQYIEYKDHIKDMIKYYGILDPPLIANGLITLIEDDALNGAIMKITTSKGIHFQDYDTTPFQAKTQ

As for `COc1ccc(-c2cc(C(F)(F)F)n3nc(C(=O)N4CCC(=O)CC4)cc3n2)cc1` [13a], the IC50 – broadly, the concentration that inhibits the measured activity by half – lay in the range of 0.5 to 2.5 µM. With `COc1ccc(-c2cc(-c3ccnc(Cl)c3)n3nc(C(=O)N4CCCCC4)cc3n2)cc1` [25a], the IC50 under setting [1] was more than 0.1 µM. Regarding `O=C(c1ccc2nc(-c3ccccc3)c(-c3ccc(F)nc3)nc2c1)N1CCCCC1` [35b], the IC50 under setting [1] was 0.02 to 0.1 µM. Consider `COc1ccc(-c2cc(C(F)(F)F)n3nc(C(=O)N4CCC(NC(=O)OC(C)(C)C)CC4)cc3n2)cc1` [14a], for which, under setting [1], the IC50 was in the range of 0.1 to 0.5 µM. The same measure, in the same setting: as for `O=C(c1ccc2ncc(-c3cc(F)cc(F)c3)nc2c1)N1CCCCC1` [47b], the figure is 0.016 µM. In the case of `CCCC[S+]([O-])c1nc2nc(-c3ccc(OC)cc3)cc(C(F)(F)F)n2n1` (stereo not drawn) [49a], the half-maximal inhibitory concentration (IC50) under setting [1] was more than 2.5 µM. On the same count and under the same terms, to `COc1ccc(-c2cc(-c3ccc(F)nc3)n3nc(C(=O)N4CCCCC4)cc3n2)cc1` [27a] belongs more than 0.5 µM; to `CC1CCCCN1C(=O)c1ccc2nc(-c3ccccc3)c(-c3ccccc3)nc2c1` (stereo not drawn) [29b], 0.1 to 0.5 µM; to `COc1ccc(-c2cc(C(F)(F)F)n3nc(C(=O)N4CCCCC4C)cc3n2)cc1` (stereo not drawn) [20a], 0.033 µM. Regarding `O=C(c1cc2nc(-c3ccccc3)cc(C(F)(F)F)n2n1)N1CCCCC1` [61a], under setting [1], the half-inhibitory concentration (IC50) is more than 2.5 µM. For the compound `CCCC[S+]([O-])c1cc2nc(-c3ccc(OC)cc3)cc(-c3cccnc3)n2n1` (stereo not drawn) [51a], under setting [1], the IC50 lay within 0.5 to 2.5 µM. On to `COc1ccc(-c2cc(C(F)(F)F)n3nc(C(=O)N4CCCCC4CO)cc3n2)cc1` (stereo not drawn) [17a], for which the IC50 under setting [1] is less than 0.1 µM. Same read-out and setting: as for `COc1ccc(-c2cc(C(F)(F)F)n3nc(C(=O)N4CCCC(C(F)F)C4)cc3n2)cc1` (stereo not drawn) [66a], the figure is 0.02 to 0.1 µM; as for `COc1ccc(-c2cc(-c3cccn3C)n3nc(C(=O)N4CCCCC4)cc3n2)cc1` [71a], 0.02 to 0.1 µM. Consider `CC1CCCN(C(=O)c2cc3nc(-c4ccc(Cl)cc4)cc(C(F)(F)F)n3n2)C1` (stereo not drawn) [75a], for which, under setting [1], the half-maximal inhibitory concentration (IC50) was in the range of 0.02 to 0.1 µM.

As to `CCCC[S+]([O-])c1nc2nc(-c3ccc(OC)cc3)cc(-c3ccccc3)n2n1` (stereo not drawn) [55a], under setting [1], the IC50 was more than 2.5 µM. For the compound `CCCC[S+]([O-])c1cc2nc(-c3ccc(OC)cc3)cc(-c3cnn(C)c3)n2n1` (stereo not drawn) [53a], the IC50 under setting [1] lay in the range of 0.5 to 2.5 µM.

With `CNc1cc(-c2ccc(OC)cc2)nc2cc(C(=O)N3CCCCC3)nn12` [31a], under setting [1], the 50% inhibitory concentration (IC50) was 0.02 to 0.1 µM.

Consider `O=C(NCc1ccccc1)c1ccc2nc(-c3ccccc3)c(-c3ccccc3)nc2c1` [15b], for which the IC50 under setting [1] is more than 2.5 µM. On the same count and under the same terms, to `Cn1nccc1-c1nc(-c2ccccc2)nc2cc(C(=O)N3CCCCC3)ccc12` [90b] belongs approximately 0.004 µM. Regarding `COc1ccc(-c2cc(-c3cccnc3)n3nc(C(=O)N4CCCCC4)cc3n2)cc1` [23a], the IC50 under setting [1] was approximately 0.1 µM. On the same count and under the same terms, as for `O=C(c1ccc2nc(-c3ccccc3)c(-c3ccncc3)nc2c1)N1CCCCC1` [34b], the figure is 0.02 µM. Turning to `COC(=O)CNC(=O)c1ccc2nc(-c3ccccc3)c(-c3ccccc3)nc2c1` [16b], under setting [1], the IC50 is more than 2.5 µM.

On to `O=C(c1cc2nc(-c3ccc(C(F)(F)F)cc3)cc(C(F)(F)F)n2n1)N1CCCCC1` [47a], for which the 50% inhibitory concentration (IC50) under setting [1] is more than 2.5 µM. Same read-out and setting: to `CCCCSc1ccc2nc(-c3ccccc3)c(-c3ccccc3)nc2c1` [2b] belongs more than 2.5 µM. Same read-out and setting: to `COc1ccc(-c2cc(C(F)(F)F)n3nc(C(=O)N4CCCC(CF)C4)cc3n2)cc1` (stereo not drawn) [58a] belongs 0.02 to 0.1 µM.

For `Nc1nc2ccc(-c3cnc4ccc(C(=O)N5CCCCC5)cc4n3)cc2s1` [95b], under setting [1], the IC50 was less than 0.004 µM. On to `CCCC[S+]([O-])c1cc2nc(-c3ccc(OC)cc3)cc(-c3ccnn3C)n2n1` (stereo not drawn) [72a], for which, under setting [1], the IC50 lay within 0.004 to 0.02 µM.

`COc1ccc(-c2cc(C(F)(F)F)n3nc(C(=O)N4CCCC(C(F)(F)F)C4)cc3n2)cc1` (stereo not drawn) [64a]: under setting [1], the IC50 was 0.1 to 0.5 µM. Turning to `COc1ccc(-c2cc(C(F)(F)F)n3nc(C(=O)N4CCCCCC4)cc3n2)cc1` [11a], the IC50 under setting [1] amounted to 0.0189 µM.

With `COc1ccc(-c2cc(N(C)C)n3nc(C(=O)N4CCCCC4)cc3n2)cc1` [32a], under setting [1], the IC50 turned out to be 0.0334 µM. Regarding `CCCC[S+]([O-])c1cc2nc(-c3ccc(OC)cc3)cc(-c3cn(C)nc3C)n2n1` (stereo not drawn) [73a], the IC50 under setting [1] amounted to 0.5 µM. In the case of `COc1ccc(-c2cc(C(F)(F)F)n3nc(C(=O)N4CCOCC4)cc3n2)cc1` [10a], the IC50 under setting [1] fell in the range of 0.1 to 0.5 µM. Consider `COc1ccc(-c2cc(-c3ccncc3)n3nc(C(=O)N4CCCCC4)cc3n2)cc1` [22a], for which the half-inhibitory concentration (IC50) under setting [1] was approximately 0.1 µM. For `CCOc1ccc(-c2cc(C(F)(F)F)n3nc(C(=O)N4CCCCC4)cc3n2)cc1` [69a], under setting [1], the IC50 is 0.5 to 2.5 µM.

On to `O=C(c1ccc2ncc(-c3cccc(F)c3)nc2c1)N1CCCCC1` [41b], for which the IC50 under setting [1] lay in the range of 0.004 to 0.02 µM. As to `CCCC[S+]([O-])c1cc2nc(-c3nccs3)cc(C(F)(F)F)n2n1` (stereo not drawn) [48a], under setting [1], the IC50 is 0.02 to 0.1 µM. Still for that read-out and setting: as for `COc1ccc(-c2cc(C(F)(F)F)n3nc(C(=O)N4CCCC4)cc3n2)cc1` [9a], the figure is more than 2.5 µM. Regarding `COc1ccc(-c2cc(-c3cncnc3)n3nc(C(=O)N4CCCCC4)cc3n2)cc1` [28a], the IC50 under setting [1] was 0.1 to 0.5 µM. Turning to `O=C(c1cc2ncc(-c3ccccc3)cn2n1)N1CCCCC1` [41a], under setting [1], the IC50 came out at 0.768 µM. Regarding `CCOC(=O)c1[nH]c2ccc(-c3cnc4ccc(C(=O)N5CCCCC5)cc4n3)cc2c1C` [91b], the IC50 under setting [1] was approximately 0.004 µM. Turning to `C=CCNC(=O)c1ccc2nc(-c3ccccc3)c(-c3ccccc3)nc2c1` [19b], under setting [1], the IC50 was more than 2.5 µM. Turning to `Cn1cc(-c2nc3cc(C(=O)N4CCCCC4)ccc3nc2-c2ccccc2)cn1` [37b], the IC50 under setting [1] was in the range of 0.02 to 0.1 µM.

Turning to `COc1ccc(-c2cc(C(F)(F)F)n3nc(C(=O)N4CCCC(=O)C4)cc3n2)cc1` [62a], the IC50 under setting [1] fell in the range of 0.5 to 2.5 µM. Turning to `CNC(=O)c1[nH]c2ccc(-c3cnc4ccc(C(=O)N5CCCCC5)cc4n3)cc2c1C` [94b], the IC50 under setting [1] is less than 0.004 µM.

In the case of `CCCC[S+]([O-])c1nc2nc(-c3nccs3)cc(C(F)(F)F)n2n1` (stereo not drawn) [50a], the IC50 under setting [1] was more than 2.5 µM. In the case of `COc1ccc(-c2cc(C(F)(F)F)n3nc(C(=O)N4CC(C)CC(C)C4)cc3n2)cc1` (stereo not drawn) [57a], under setting [1], the IC50 was found to be 0.1 µM.

For the compound `COc1ccc(-c2cc(-c3ccccn3)n3nc(C(=O)N4CCCCC4)cc3n2)cc1` [24a], under setting [1], the IC50 lay within 0.02 to 0.1 µM. The same measure, in the same setting: to `O=C(c1cc2nc(N3CCCCC3)cc(C(F)(F)F)n2n1)N1CCCCC1` [39a] belongs 0.66 µM. Regarding `O=C(O)c1ccc2nc(-c3ccccc3)c(-c3ccccc3)nc2c1` [21b], under setting [1], the IC50 is more than 2.5 µM. As for `O=C(c1cc2nc(-c3nccs3)cc(C(F)(F)F)n2n1)N1CCCCC1` [45a], the IC50 under setting [1] was found to be 0.014 µM. For `COc1ccc(-c2cc(-c3ccccc3)n3nc(C(=O)N4CCCCC4)cc3n2)cc1` [34a], the IC50 under setting [1] is more than 0.5 µM. Turning to `O=C(c1ccc2ncc(-c3ccc(F)cc3)nc2c1)N1CCCCC1` [42b], the IC50 under setting [1] is 0.004 to 0.02 µM. `O=C(c1ccc2nc(-c3ccccc3)c(-c3ccccc3)nc2c1)N1CCCCC1CO` (stereo not drawn) [26b]: the concentration for half-maximal inhibition (IC50) under setting [1] was in the range of 0.1 to 0.5 µM. As for `COc1ccc(-c2cc(C(F)(F)F)n3nc(C(=O)N4CCCC(C)C4)cc3n2)cc1` (stereo not drawn) [19a], the IC50 under setting [1] came out at 0.0146 µM. As to `O=C(c1ccc2nc(-c3ccccc3)[nH]c2c1)N1CCCCC1` [32b], the IC50 under setting [1] lay in the range of 0.1 to 0.5 µM. On the same count and under the same terms, to `CNC(=O)c1ccc(-c2cnc3ccc(C(=O)N4CCCCC4)cc3n2)cc1` [80b] belongs 0.004 µM; to `COc1ccc(-c2cc(C(F)(F)F)n3nc(C(=O)N4CCCC(C)(C)C4)cc3n2)cc1` [63a], 0.004 to 0.02 µM; to `Cc1cc(-c2nc3cc(C(=O)N4CCCCC4)ccc3nc2-c2ccccc2)ccn1` [38b], 0.02 µM. Same read-out and setting: to `O=C(c1cc2nc(-c3ccc(F)cc3)cc(C(F)(F)F)n2n1)N1CCCCC1` [36a] belongs 0.0307 µM.
